This note sets out measurements from patent publication US20100317607A1, “USE OF COMPOUNDS FOR PREPARING ANTI-TUBERCULOSIS AGENTS” (INFECTIOUS DISEASE RESEARCH INSTITUTE, priority 2007, published 2010).

In brackets after ≈: the same amount, converted by molar mass. Where a name gives a salt, the structure may show the parent alone. Where only a bound is given, the exact number is not on record here.

One assay has as its system H37Rv strain of M. tuberculosis. Kind of assay: Alamar Blue Susceptibility Test (MABA). The format is cell-based. As to conditions: H37Rv strain of M. tuberculosis; Alamar Blue.
As for `Nc1nc(N)c2ccccc2n1` [Comparative compound 2, Quinazoline-2,4-diamine, reference compound], the “MABA (TB growth inhibition, colourimetric assay)” value was “−”.

As to `c1ccc2c(NC34CC5CC(CC(C5)C3)C4)nc(N3CCOCC3)nc2c1` [Compound 61, N-(1′-Adamantyl)-2-(morpholino)quinazolin-4-amine], the “MABA (TB growth inhibition, colourimetric assay)” value is listed as “+++ (10-50 μM=+++)”.

Turning to `Nc1nc(N2CCCCC2)nc2ccccc12` [compound 1, 2-(Piperidin-1-yl)quinazolin-4-amine, reference compound], the “MABA (TB growth inhibition, colourimetric assay)” value is “−”.

Still in this assay, the particulars now being: Mycobacterium tuberculosis; H37Rv strain of M. tuberculosis; Alamar Blue; read-out: MABA (TB growth inhibition, colourimetric assay).
For the molecule `Fc1ccc(CNc2nc(N3CCCC3)nc3ccccc23)cc1` [Compound 172, N-(4-Fluorobenzyl)-2-(pyrrolidin-1-yl)quinazolin-4-amine], the MIC was below 10 µM.

Regarding `c1ccc(CNc2nc(N3CCNCC3)nc3ccccc23)cc1` [Compound 51, N-Benzyl-2-(piperazin-1-yl)quinazolin-4-amine], the MIC is 50 to 128 µM (≈ 16 to 40.9 µg/mL).

`c1ccc(C(Nc2nc(N3CCCCC3)nc3ccccc23)c2ccccc2)cc1` [Compound 50, N-Benzhydryl-2-(piperidin-1-yl)quinazolin-4-amine]: the MIC was in the range of 10 to 50 µM (≈ 3.95 to 19.7 µg/mL).

Take `c1ccc(C2(Nc3nc(N4CCCCC4)nc4ccccc34)CC2)cc1` [Compound 122, N-(1-Phenylcyclopropyl)-2-(piperidin-1-yl)quinazolin-4-amine]: the MIC was in the range of 10 to 50 µM (≈ 3.44 to 17.2 µg/mL).

In the case of `CCOC(=O)CNc1nc(NCc2ccc(F)cc2)c2ccccc2n1` [Compound 206, Ethyl 2-(4-(4-fluorobenzylamino)quinazolin-2-ylamino)acetate hydrochloride], the MIC is 50 to 128 µM.

For `Cc1ccc(CNc2nc(NCc3ccccc3)c3ccccc3n2)cc1` [Compound 28, N^4-Benzyl-N^2-(4-methylbenzyl)quinazoline-2,4-diamine], the MIC was 10 to 50 µM (≈ 3.54 to 17.7 µg/mL).

For `Cc1ccc(C(C)(C)Nc2nc(N3CCCCC3)nc3ccccc23)cc1` [Compound 102, 2-(Piperidin-1-yl)-N-(2-p-tolylpropan-2-yl)quinazolin-4-amine], the MIC was in the range of 10 to 50 µM (≈ 3.61 to 18 µg/mL).

Turning to `COc1cc2nc(N3CCCCC3)nc(NCc3ccc(F)cc3)c2cc1OC` [Compound 150, N-(4-Fluorobenzyl)-6,7-dimethoxy-2-(piperidin-1-yl)quinazolin-4-amine hydrochloride], the MIC lay in the range of 10 to 50 µM.

For the molecule `COc1cc2nc(N3CCC(F)(F)CC3)nc(NCc3ccc(F)cc3)c2cc1OC` [Compound 151, 2-(4,4-Difluoropiperidin-1-yl)-N-(4-fluorobenzyl)-6,7-dimethoxyquinazolin-4-amine hydrochloride], the MIC was 10 to 50 µM.

`Clc1ccc(N2CCN(c3nc(N4CCCCC4)nc4ccccc34)CC2)cc1` [Compound 89, 4-(4-(4-Chlorophenyl)piperazin-1-yl)-2-(piperidin-1-yl)quinazoline]: the MIC was in the range of 10 to 50 µM (≈ 4.08 to 20.4 µg/mL).

For the molecule `CC(C)(C)C(=O)N1CCN(c2nc(NCc3ccccc3)c3ccccc3n2)CC1` [Compound 57, 1-(4-(4-(Benzylamino)quinazolin-2-yl)piperazin-1-yl)-2,2-dimethylpropan-1-one], the MIC was 10 to 50 µM (≈ 4.04 to 20.2 µg/mL).

Consider `O=C(c1ccccc1)N1CCN(c2nc(NCc3ccccc3)c3ccccc3n2)CC1` [Compound 58, 1-(4-(4-(Benzylamino)quinazolin-2-yl)piperazin-1-yl)(phenyl)methanone], for which the MIC is 10 to 50 µM (≈ 4.24 to 21.2 µg/mL).

With `c1ccc(CNc2nc(N3CCCOCC3)nc3ccccc23)cc1` [Compound 52, N-Benzyl-2-(1,4-oxazepan-4-yl)quinazolin-4-amine], the MIC fell in the range of 10 to 50 µM (≈ 3.34 to 16.7 µg/mL).

As to `Fc1ccc(CNc2nc(Nc3ccc(F)cc3)nc3ccccc23)cc1` [Compound 118, N^4-(4-Fluorobenzyl)-N^2-(4-fluorophenyl)quinazoline-2,4-diamine hydrochloride], the MIC was in the range of 10 to 50 µM.

As to `FC1(F)CCN(c2nc(NCc3ccc(C(F)(F)F)cc3)nc3ccccc23)CC1` [Compound 147, 4-(4,4-Difluoropiperidin-1-yl)-N-(4-(trifluoromethyl)benzyl)quinazolin-2-amine], the MIC was below 10 µM.

In the case of `Fc1ccc(CNc2nc(N3CCCCC3)c3ccccc3n2)cc1` [Compound 111, N-(4-Fluorobenzyl)-4-(piperidin-1-yl)quinazolin-2-amine hydrochloride], the MIC was 10 to 50 µM.

With `Cc1ccccc1CNc1nc(N2CCCCC2)nc2ccccc12` [Compound 104, N-(2-Methylbenzyl)-2-(piperidin-1-yl)quinazolin-4-amine hydrochloride], the MIC lay in the range of 10 to 50 µM.

`Clc1ccc(CNc2nc(N3CCOCC3)nc3ccccc23)cc1` [Compound 74, N-(4-Chlorobenzyl)-2-morpholinoquinazolin-4-amine]: the MIC fell in the range of 10 to 50 µM (≈ 3.55 to 17.7 µg/mL).

On to `COc1ccccc1CNc1nc(N2CCCCC2)nc2ccccc12` [Compound 81, N-(2-Methoxybenzyl)-2-(piperidin-1-yl)quinazolin-4-amine hydrochloride], for which the MIC is 10 to 50 µM.

Turning to `Fc1ccc(Nc2nc(N3CCCC3)nc3nccnc23)cc1` [Compound 185, N-(4-Fluorophenyl)-2-(pyrrolidin-1-yl)pteridin-4-amine], the MIC lay within 50 to 128 µM (≈ 15.5 to 39.7 µg/mL).

As to `CCN(CC)c1nc(NCc2ccccc2)c2ccccc2n1` [Compound 25, N^4-Benzyl-N^2,N^2-diethylquinazoline-2,4-diamine], the MIC was 10 to 50 µM (≈ 3.06 to 15.3 µg/mL).

As to `Fc1ccc(CNc2nc(N3CCC(F)(F)CC3)c3ccccc3n2)cc1` [Compound 149, 4-(4,4-Difluoropiperidin-1-yl)-N-(4-fluorobenzyl)quinazolin-2-amine hydrochloride], the MIC was in the range of 10 to 50 µM.

Take `Fc1ccc(CNc2nc(NCc3ccc(F)cc3)c3sccc3n2)cc1` [Compound 166, N^2,N^4-bis(4-Fluorobenzyl)thieno[3,2-d]pyrimidine-2,4-diamine]: the MIC lay within 10 to 50 µM (≈ 3.82 to 19.1 µg/mL).

In the case of `c1ccc2c(CNc3nc(N4CCCCC4)nc4ccccc34)ccnc2c1` [Compound 195, 2-(Piperidin-1-yl)-N-(quinolin-4-ylmethyl)quinazolin-4-amine], the MIC lay in the range of 10 to 50 µM (≈ 3.69 to 18.5 µg/mL).

As to `O=C(N1CCCC1)N1CCN(c2nc(NCc3ccc(F)cc3)c3ccccc3n2)CC1` [Compound 205, (4-(4-(4-Fluorobenzylamino)quinazolin-2-yl)piperazin-1-yl)(pyrrolidin-1-yl)methanone hydrochloride], the MIC is 50 to 128 µM.

Take `COC[C@@H]1CCCN1c1nc(NCc2ccc(F)cc2)c2ccccc2n1` [Compound 199, (S)—N-(4-Fluorobenzyl)-2-(2-(methoxymethyl)pyrrolidin-1-yl)quinazolin-4-amine]: the MIC lay in the range of 10 to 50 µM (≈ 3.66 to 18.3 µg/mL).

As for `Fc1ccc(CNc2nc(NCc3ccc(C(F)(F)F)o3)c3ccccc3n2)cc1` [Compound 159, N^2-(4-Fluorobenzyl)-N4-((5-(trifluoromethyl)furan-2-yl)methyl)quinazoline-2,4-diamine hydrochloride], the MIC is below 10 µM.

Regarding `O=[N+]([O-])c1ccc(NCCNc2nc(N3CCOCC3)nc3ccccc23)cc1` [Compound 7, N^1-(2-Morpholinoquinazolin-4-yl)-N^2-(4-nitrophenyl)ethane-1,2-diamine], the MIC fell in the range of 50 to 128 µM (≈ 19.7 to 50.5 µg/mL).

Turning to `COC[C@H](Cc1ccccc1)Nc1nc(N2CCCCC2)nc2ccccc12` [Compound 144, (S)—N-(1-Methoxy-3-phenylpropan-2-yl)-2-(piperidin-1-yl)quinazolin-4-amine], the MIC lay within 10 to 50 µM (≈ 3.77 to 18.8 µg/mL).

Take `FC1(F)CCN(c2nc(NCc3ccc(C(F)(F)F)o3)c3ccccc3n2)CC1` [Compound 161, 2-(4,4-Difluoropiperidin-1-yl)-N-((5-(trifluoromethyl)furan-2-yl)methyl)quinazolin-4-amine hydrochloride]: the MIC lay in the range of 10 to 50 µM.

As for `c1cncc(CNc2nc(N3CCCCC3)nc3ccccc23)c1` [Compound 47, 2-(Piperidin-1-yl)-N-(pyridin-3-ylmethyl)quinazolin-4-amine], the MIC is 50 to 128 µM (≈ 16 to 40.9 µg/mL).

For `COc1cc2c(cc1OC)CN(c1nc(N3CCCC3)nc3ccccc13)CC2` [Compound 188, 4-(6,7-Dimethoxy-3,4-dihydroisoquinolin-2(1H)-yl)-2-(pyrrolidin-1-yl)quinazoline], the MIC fell in the range of 10 to 50 µM (≈ 3.9 to 19.5 µg/mL).

On to `Oc1ccc(CNc2nc(NCc3ccc(F)cc3)nc3ccccc23)cc1` [Compound 165, 4-((2-(4-Fluorobenzylamino)quinazolin-4-ylamino)methyl)phenol], for which the MIC lay within 10 to 50 µM (≈ 3.74 to 18.7 µg/mL).

For the molecule `Fc1ccc(CNc2nc(NCc3ccccc3)c3ccccc3n2)cc1` [Compound 126, N^4-Benzyl-N^2-(4-fluorobenzyl)quinazoline-2,4-diamine hydrochloride], the MIC is 10 to 50 µM.

In the case of `Clc1ccc(C2(Nc3nc(N4CCCC4)nc4ccccc34)CC2)cc1` [Compound 142, N-(1-(4-Chlorophenyl)cyclopropyl)-2-(pyrrolidin-1-yl)quinazolin-4-amine hydrochloride], the MIC was 10 to 50 µM.

Regarding `CCS(=O)(=O)N1CCN(c2nc(NCc3ccccc3)c3ccccc3n2)CC1` [Compound 26, N-Benzyl-2-(4-(ethylsulfonyl)piperazin-1-yl)quinazolin-4-amine], the MIC was in the range of 50 to 128 µM (≈ 20.6 to 52.7 µg/mL).

On to `CC(C)(Nc1nc(N2CCCC2)nc2ccccc12)c1ccc(F)cc1` [Compound 121, N-(2-(4-Fluorophenyl)propan-2-yl)-2-(pyrrolidin-1-yl)quinazolin-4-amine], for which the MIC lay within 10 to 50 µM (≈ 3.5 to 17.5 µg/mL).

Regarding `Clc1ccc(CNc2nc(N3CCCC3)nc3ccccc23)cc1` [Compound 75, N-(4-Chlorobenzyl)-2-(pyrrolidin-1-yl)quinazolin-4-amine], the MIC lay within 10 to 50 µM (≈ 3.39 to 16.9 µg/mL).

As for `Fc1ccc(CNc2nc(NCc3ccc(F)cc3)c3ccc(F)cc3n2)cc1` [Compound 157, 7-Fluoro-N^2, N^4-bis(4-fluorobenzyl)quinazoline-2,4-diamine], the MIC is below 10 µM.

On to `O=C(c1ccccc1)N1CCN(c2nc(NCc3ccc(F)cc3)c3ccccc3n2)CC1` [Compound 204, (4-(4-(4-Fluorobenzylamino)quinazolin-2-yl)piperazin-1-yl)(phenyl)methanone], for which the MIC was in the range of 50 to 128 µM (≈ 22.1 to 56.5 µg/mL).

Consider `COc1cc2c(cc1OC)CN(c1nc(N3CCCCC3)nc3ccccc13)CC2` [Compound 192, 4-(6,7-Dimethoxy-3,4-dihydroisoquinolin-2(1H)-yl)-2-(piperidin-1-yl)quinazoline], for which the MIC was in the range of 10 to 50 µM (≈ 4.05 to 20.2 µg/mL).
